Experimental data taken from patent US20260285850A1, “SUBSTITUTED OXAZOLIDINONES AND IMIDAZOLINONES AS HERBICIDES” (FMC CORPORATION, priority 2023, published 2026).

Key:
Type in all cases: in vivo
[1] = tested on: blackgrass (Alopecurus myosuroides); experiment: Test A preemergence soil spray, visual injury rating 0-100; details: 10 days, 0 = no effect, 100 = complete control
Outline: (§1)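 Compounds formulated in a non-phytotoxic solvent with surfactant are sprayed onto soil of freshly planted loam-sand pots ahead of emergence, or onto emerged plants 2-10 cm tall. After a 10-day greenhouse period, each species is scored visually for injury against untreated controls.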

[2] = tested on: oat, wild (wild oat, Avena fatua); experiment: as above; details: 10 days, 0 = no effect, 100 = complete control
Outline: as §1

[3] = tested on: kochia (Bassia scoparia); experiment: as above; details: 10 days, 0 = no effect, 100 = complete control
Outline: as §1

[4] = tested on: foxtail, giant (giant foxtail, Setaria faberi); experiment: as above; details: 10 days, 0 = no effect, 100 = complete control
Outline: as §1

[5] = tested on: ryegrass, Italian (italian ryegrass, Lolium multiflorum); experiment: as above; details: 10 days, 0 = no effect, 100 = complete control
Outline: as §1

[6] = tested on: wheat (Triticum aestivum); experiment: as above; details: 10 days, 0 = no effect, 100 = complete control
Outline: as §1

[7] = tested on: soybean (Glycine max); experiment: as above; details: 10 days, 0 = no effect, 100 = complete control
Outline: as §1

[8] = tested on: corn (Zea mays); experiment: as above; details: 10 days, 0 = no effect, 100 = complete control
Outline: as §1

[9] = tested on: ragweed (common ragweed, Ambrosia artemisiifolia); experiment: as above; details: 10 days, 0 = no effect, 100 = complete control
Outline: as §1

[10] = tested on: palmer (palmer amaranth, palmer pigweed, Amaranthus palmeri); experiment: as above; details: 10 days, 0 = no effect, 100 = complete control
Outline: as §1

[11] = tested on: barnyardgrass (Echinochloa crus-galli); experiment: as above; details: 10 days, 0 = no effect, 100 = complete control
Outline: as §1

[12] = tested on: blackgrass (Alopecurus myosuroides); experiment: Test A postemergence application, visual injury rating 0-100; details: Postemergence, 10 days, 0 is no effect, 100 is complete control
Outline: as §1

[13] = tested on: horseweed (Erigeron canadensis); experiment: as above; details: Postemergence, 10 days, 0 is no effect, 100 is complete control
Outline: as §1

[14] = tested on: oat, wild (wild oat, Avena fatua); experiment: as above; details: Postemergence, 10 days, 0 is no effect, 100 is complete control
Outline: as §1

[15] = tested on: galium (catchweed bedstraw, Galium aparine); experiment: as above; details: Postemergence, 10 days, 0 is no effect, 100 is complete control
Outline: as §1

[16] = tested on: kochia (Bassia scoparia); experiment: as above; details: Postemergence, 10 days, 0 is no effect, 100 is complete control
Outline: as §1

[17] = tested on: foxtail, giant (giant foxtail, Setaria faberi); experiment: as above; details: 10 days, 0 is no effect, 100 is complete control
Outline: as §1

[18] = tested on: ryegrass, Italian (italian ryegrass, Lolium multiflorum); experiment: as above; details: Postemergence, 10 days, 0 is no effect, 100 is complete control
Outline: as §1

[19] = tested on: wheat (Triticum aestivum); experiment: as above; details: Postemergence, 10 days, 0 is no effect, 100 is complete control
Outline: as §1

[20] = tested on: soybean (Glycine max); experiment: as above; details: Postemergence, 10 days, 0 is no effect, 100 is complete control
Outline: as §1

[21] = tested on: corn (Zea mays); experiment: as above; details: Postemergence, 10 days, 0 is no effect, 100 is complete control
Outline: as §1

[22] = tested on: ragweed (common ragweed, Ambrosia artemisiifolia); experiment: as above; details: Postemergence, 10 days, 0 is no effect, 100 is complete control
Outline: as §1

[23] = tested on: palmer (palmer amaranth, palmer pigweed, Amaranthus palmeri); experiment: as above; details: Postemergence, 10 days, 0 is no effect, 100 is complete control
Outline: as §1

[24] = tested on: barnyardgrass (Echinochloa crus-galli); experiment: as above; details: Postemergence, 10 days, 0 is no effect, 100 is complete control
Outline: as §1

[25] = tested on: ducksalad (Heteranthera limosa); experiment: Test B flooded paddy test, visual plant response rating 0-100; details: 250 g ai/ha, Flood, applied to paddy water, evaluated after 13 days
Outline: (§2)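 Visual scores versus untreated controls were recorded 13 days after treatment of greenhouse-held plants. At the 2-leaf stage, pots were flooded 3 cm above the soil surface and compounds added straight to the water.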

[26] = tested on: sedge, umbrella (small-flower umbrella sedge, Cyperus difformis); experiment: as above; details: 250 g ai/ha, Flood, applied to paddy water, evaluated after 13 days
Outline: as §2

[27] = tested on: barnyardgrass (Echinochloa crusgalli); experiment: as above; details: 250 g ai/ha, Flood, applied to paddy water, evaluated after 13 days
Outline: as §2

[28] = tested on: rice (Oryza sativa); experiment: as above; details: 250 g ai/ha, Flood, applied to paddy water, evaluated after 13 days
Outline: as §2

In the case of `CC1(C(=O)N[C@H]2C=C[C@@H](C(=O)O)C2)CN(c2cc(F)cc(F)c2)C(=O)O1` (stereo partly drawn) [Compound 51, (1S,4R)-4-[[[3-(3,5-Difluorophenyl)-5-methyl-2-oxo-5-oxazolidinyl]carbonyl]amino]-2-cyclopentene-1-carboxylic acid], the “Blackgrass plant response rating (0 to 100 scale)” value (from here on “Blackgrass plant response rating”) ([1]; 125 g ai/ha) is reported as 80, the “Blackgrass plant response rating” value ([1]; 500 g ai/ha) is reported as 90 and the “Oat, Wild plant response rating (0 to 100 scale)” value (“Oat, Wild plant response rating” for short) ([2]; 125 g ai/ha) is reported as 90. The “Oat, Wild plant response rating” value ([2]; 500 g ai/ha) was 90, the “Kochia plant response rating (0 to 100 scale)” value (“Kochia plant response rating” below) ([3]; 125 g ai/ha) was 90 and the “Kochia plant response rating” value ([3]; 500 g ai/ha) was 100. For the same compound, the “Foxtail, Giant plant response rating (0 to 100 scale)” value (“Foxtail, Giant plant response rating” below) ([4]; 125 g ai/ha) was 90, the “Foxtail, Giant plant response rating” value ([4]; 500 g ai/ha) was 100 and the “Ryegrass, Italian plant response rating (0 to 100 scale)” value (“Ryegrass, Italian plant response rating” below) ([5]; 125 g ai/ha) was 90. The “Ryegrass, Italian plant response rating” value ([5]; 500 g ai/ha) was 100, the “Wheat plant response rating (0 to 100 scale)” value (shortened to “Wheat plant response rating”) ([6]; 125 g ai/ha) was 100 and the “Wheat plant response rating” value ([6]; 500 g ai/ha) was 100. For the same compound, the “Soybean plant response rating (0 to 100 scale)” value (“Soybean plant response rating” for short) ([7]; 125 g ai/ha) was 70, the “Soybean plant response rating” value ([7]; 500 g ai/ha) was 100 and the “Corn plant response rating (0 to 100 scale)” value (from here on “Corn plant response rating”) ([8]; 125 g ai/ha) was 90. For the same compound, the “Corn plant response rating” value ([8]; 500 g ai/ha) was 90, the “Ragweed plant response rating (0 to 100 scale)” value (shortened to “Ragweed plant response rating”) ([9]; 125 g ai/ha) was 70 and the “Ragweed plant response rating” value ([9]; 500 g ai/ha) was 80. For the same compound, the “Amaranth, Palmer plant response rating (0 to 100 scale)” value ([10]; 125 g ai/ha) was 90, the “Amaranth, Palmer plant response rating (0 to 100 scale)” value ([10]; 500 g ai/ha) was 100 and the “Barnyardgrass plant response rating (0 to 100 scale)” value (shortened to “Barnyardgrass plant response rating”) ([11]; 125 g ai/ha) was 100. The “Barnyardgrass plant response rating” value ([11]; 500 g ai/ha) was 100, the “Blackgrass plant response rating” value ([12]; 125 g ai/ha) was 90 and the “Blackgrass plant response rating” value ([12]; 500 g ai/ha) was 100. For the same compound, the “Horseweed plant response rating (0 to 100 scale)” value ([13]; 125 g ai/ha) was 80, the “Horseweed plant response rating (0 to 100 scale)” value ([13]; 500 g ai/ha) was 100 and the “Oat, Wild plant response rating” value ([14]; 125 g ai/ha) was 90. The “Oat, Wild plant response rating” value ([14]; 500 g ai/ha) was 90, the “Galium plant response rating (0 to 100 scale)” value ([15]; 125 g ai/ha) was 70 and the “Galium plant response rating (0 to 100 scale)” value ([15]; 500 g ai/ha) was 70. For the same compound, the “Kochia plant response rating” value ([16]; 125 g ai/ha) was 80, the “Kochia plant response rating” value ([16]; 500 g ai/ha) was 80 and the “Foxtail, Giant plant response rating” value ([17]; 125 g ai/ha) was 90. For the same compound, the “Foxtail, Giant plant response rating” value ([17]; 500 g ai/ha) was 90, the “Ryegrass, Italian plant response rating” value ([18]; 125 g ai/ha) was 70 and the “Ryegrass, Italian plant response rating” value ([18]; 500 g ai/ha) was 70. For the same compound, the “Wheat plant response rating” value ([19]; 125 g ai/ha) was 90, the “Wheat plant response rating” value ([19]; 500 g ai/ha) was 90 and the “Soybean plant response rating” value ([20]; 125 g ai/ha) was 70. For the same compound, the “Soybean plant response rating” value ([20]; 500 g ai/ha) was 100, the “Corn plant response rating” value ([21]; 125 g ai/ha) was 90 and the “Corn plant response rating” value ([21]; 500 g ai/ha) was 90. The “Ragweed plant response rating” value ([22]; 125 g ai/ha) was 60, the “Ragweed plant response rating” value ([22]; 500 g ai/ha) was 70 and the “Amaranth, Palmer / Pigweed, Palmer plant response rating (0 to 100 scale)” value ([23]; 125 g ai/ha) was 90. The “Amaranth, Palmer / Pigweed, Palmer plant response rating (0 to 100 scale)” value ([23]; 500 g ai/ha) was 90, the “Barnyardgrass plant response rating” value ([24]; 125 g ai/ha) was 100 and the “Barnyardgrass plant response rating” value ([24]; 500 g ai/ha) was 100. For the same compound, the “Plant response rating, Ducksalad (0 to 100 scale, 0 is no effect and 100 is complete control)” value [25] was 60, the “Plant response rating, Sedge, Umbrella (0 to 100 scale, 0 is no effect and 100 is complete control)” value [26] was 60 and the “Plant response rating, Barnyardgrass (0 to 100 scale, 0 is no effect and 100 is complete control)” value [27] was 75. The “Plant response rating, Rice (0 to 100 scale, 0 is no effect and 100 is complete control)” value [28] was 60.
